Data as given in US20180265867A1, “NUCLEIC ACID MOLECULES WITH ENHANCED ACTIVITY” (priority 2015, published 2018).
d = 2'-deoxy (DNA); r = 2'-OH (RNA)

Tests used:
[1] = tested on: GAPDH; assay: GAPDH gene knockdown in MG63 cells by RT-PCR; format: cell-based, human; conditions: MG63 cells; for GAPDH gene knockdown: 50 nM, 24 h
Method: At 70% confluency, a day prior to transfection, the cells were seeded at a density of 35 000 cells in a 24-well cell culture plate to achieve 60-80% confluence at the day of transfection. Cell penetrating siRNAs (cpRNAs) of different lengths were transfected at 50 nM concentrations with Magnet Assisted Transfection (MATra-si) reagent for siRNAs (IBA GmbH, Göttingen, Germany) according to the manufacturers' protocols. Briefly, the siRNA was mixed with MATra-si reagent composed of supermagnetic ironoxide nanoparticles and incubated for 20 min. A complex was formed which was added to the cells to be transfected. A strong magnetic force was applied beneath the cells for 15 min. This forced the complex to be drawn into the cells by the magnetic field, and as a result the siRNA was delivered directly into the cytosol. For carrier free transfection experiments, cpRNAs were simply added to cells lines MG63, HOB, HCT116, fibroblasts and keratinocytes at 50 nM concentrations. Cells were also transfected with negative control siRNA (scrambled sequence) and cells left untreated were taken as controls. Each transfection was performed in triplicate. Post transfection, cells were incubated for 24 hours.
For the experiments involving lysosomotropic agent chloroquine (CQ), CQ was first neutralized to pH 7.4 using 1 M NaOH prior to use. MG63 cells were transfected with dT2, dT5, dT8, (dT5)2, as(dT5), and bl(dT5) siRNA in presence or absence of 100 μM CQ or using MATra-si and incubated for 24 h. Similar experiments were performed for other cpRNAs namely, dA5, dT5, dG5, (dT5)2, rA5 and dC5. For the control experiment, cells were either left untreated or transfected with negative control siRNA (scrambled sequence). Each transfection experiment was performed in triplicate.
After performing transfection experiments for 24 h, 48 h and 72 h respectively, total RNA was isolated from cells by adding 500 μl of lysis buffer (Qiagen, Germany), followed by homogenization of cell lysates using QIAshredder (Qiagen, Germany). RNA was extracted from cell lysates by RNeasy Mini Kit (Qiagen, Germany). All RNA samples were treated with DNase using TURBO-DNAfree (Ambion, USA). Agilent 2100 BioAnalyzer (Agilent Technologies, Palo Alto, Calif.) was used to confirm high quality of all RNA samples, which reports an RNA Integrity Number (RIN) that takes into account the entire electrophoretic RNA trace produced in the analysis. A RIN of greater than or equal to seven indicates the RNA is suitable for high stringency applications.
cDNA synthesis was performed in triplicate using total RNA reverse transcribed using High Capacity cDNA reverse transcription kit (Applied Biosystems, USA), with non-template control added to ensure a lack of signal in assay background. Reactions were incubated on a 96-well Applied Biosystems 9800 Fast Thermal Cycler PCR System at 37° C. for 60 min followed by 95° C. for 5 min. The real-time PCR reactions were carried out with 10 μl of 2×TaqMan® Universal PCR Master Mix, no AmpErase® UNG (Applied Biosystems, USA), 9 μl diluted cDNA, and 1 μl of TaqMan gene specific assay mix in a 20 μl final reaction volume. Reference gene beta-actin (ACTB) (Applied Biosystems, USA) was selected as control for normalization of TaqMan data. The assay included a no-template control, a standard curve of five serial dilution points (in steps of 3-fold) of cDNA mixture. Probes specific for IFN-α (Hs01022060_m1), IFN-β (Hs01077958_s1), IFN-γ (Hs00985251_m1), ACTB(Hs01060665_g1) and GAPDH (Hs02758991_g1) were purchased from Applied Biosystems. The amplification was carried out using the 7500 Fast Real-Time PCR System (Applied Biosystems, USA) using a 40-cycle program. The 7500 software automatically calculates raw Ct (cycle threshold) values. Data from samples with a Ct value equal to or below 35 were further analyzed. […]

[2] = Thermal denaturation (Tm) of siRNA duplexes; format: physicochemical; conditions: for Tm: 7.5 mM phosphate buffer pH 7.0 containing 140 mM KCl, 1 μM strands, 40-95° C.; for Δ Tm: Tm relative to canonical siRNA (dT2); for drop in Tm: as compared to canonical siRNA
Method: Thermal denaturation studies of siRNA was carried out in phosphate buffer, pH 7.0, containing 140 mM KCl. UV absorbance was monitored at 260 nm in the temperature range from 40 to 95° C. using a Lambda 35 UV-Vis spectrophotometer equipped with a Peltier temperature programmer with a heating rate of 0.5° C./min. Samples (1 μM RNA) were denatured at 90° C. for 3 min followed by slow cooling to 27° C. prior to the measurements. Tm values were obtained from the maxima of the first derivatives of the melting curves. All Tm values given are the averages of three independent sets of experiments (±0.3° C. error range).

[3] = tested on: Ctnnb1 (β-Catenin); assay: Ctnnb1 expression in MC3T3-E1 cells by quantitative RT-PCR; format: cell-based, mouse
Method: MC3T3-E1 cells were cultured in α-MEM (Sigma-Aldrich, Haverhill, UK) medium containing 10% FBS, 1% L-Glutamine, and 1% antibiotics (PeSt) at 37° C. with 5% CO2. One day prior to the miRNA treatment, 35,000 cells were plated per each well of a 24-well plate. On the experiment day, cells were replaced with 2% heat inactivated-FBS containing α-MEM medium with 1% L-Glutamine, and 1% antibiotics (PeSt). miR-34a-CP (final concentration: 50 nM) was given to the each well. Mirvana scrambled miRNA mimic was used as a negative control.
After 24 hours of transfection, and incubation, RNA extraction was performed by using miRCURY RNA Isolation Kit—Cell and Plant (#300100) and protocol from Exiqon, Vedbæk, Denmark. RNA samples were treated with DNase for 30 minutes at 37 degrees, thereafter inactivated with a DNase inactivation solution (TUTRBO DNase AM2238 thermofisher). Thereafter, RNA concentrations were measured using NanoDrop ND-1000 from NanoDrop Technologies, Wilmington, Del.
The cDNA was made from the total RNA using High Capacity cDNA reverse transcription kit (Applied Biosystems, USA). Reactions were performed on a 96-well Bio-Rad Thermal Cycler PCR System at 37° C. for 60 minutes, and at 95° C. for 5 min respectively. Real-time PCR reactions were performed as follows: 10 μl of 2×TaqMan® Universal PCR Master Mix, no AmpErase® UNG (Applied Biosystems, USA), 9 μl 1:5 diluted cDNA, and 1 μl of TaqMan gene specific assay mix. Final volume of the reaction mix was 20 uL. Internal control gene beta-actin (ACTB) (Applied Biosystems, USA) was selected as control for normalization of TaqMan data. The qRT-PCR reaction comprised a non-template control of cDNA in order to rule out any non-specific reading. Taqman probes for Ctnnb1, Sox9, Actb, were obtained from Applied Biosystems. The qRT-PCR amplification was carried out using the Bio-Rad qRT-PCR Thermocycler.
In order to achieve the transfection reagent free delivery of therapeutically potential microRNAs, we tested miR-34a and compared with miR-34a-CP. Since microRNAs unlike siRNAs have multiple targets in the cell, and there is a necessity to reduce the off-target and undesirable effects if any, we have also designed siRNA model siR-34a-CP as stated above. We have used mouse preosteoblast cell line MC3T3-E1 obtained from calvarial bone for the in-vitro functional validation of cell-penetrating molecules. On the day before transfection experiment, 35000 MC3T3-E1 cells were cultured per each well of the 24-well culture plate in alpha-Minimum Essential Medium with 10% heat inactivated FBS, 1% L-Glutamine, 1% antibiotics (Pe/St). […] 5% CO2. Thereafter, RNA extraction, cDNA preparation, and quantitative real-time PCR was performed by using TaqMan procedure.

[4] = without transfection reagent MaTra (FIG. 12)

Substance | GAPDH gene knockdown ([1]; carrier-free transfection) [%] | Tm [2] [°C] | Δ Tm [2] [°C] | drop in Tm [2] [°C] | other results
bl(dT5): GAPDH siRNA, sense SEQ ID NO: 3 with dT5, blunt ended antisense SEQ ID NO: 11 without overhang (sense CCGAGCCACAUCGCUCAGATTTTT; antisense UCUGAGCGAUGUGGCUCGG; sense: sugars from the 5' end r19 d5, backbone not given here; antisense: RNA, backbone not given here) | 60 | 79.1 | −2.1 | – | decrease in activity ([1]; 3′-dT2 of antisense strand removed, versus dT5): 20%
siR-34a-CP: Cell penetrating siRNA analog of miR-34a, sense SEQ ID NO: 24 with dA5, antisense SEQ ID NO: 25 (sense AAUCAGCUAAGUAUACUGCCAAAAAA; antisense UGGCAGUGUACUUAGCUGGUUGU; sense: sugars from the 5' end r21 d5, backbone not given here; antisense: RNA, backbone not given here) | – | – | – | – | Ctnnb1 expression ([3]; 50 nM, 24 h, alone without transfection reagent (FIG. 11)): up regulation of Ctnnb1; Ctnnb1 expression [3, 4]: up regulation of Ctnnb1
as(dT5): GAPDH siRNA, sense SEQ ID NO: 1 with dT2, antisense SEQ ID NO: 5 with dT5 3′-overhang (sense CCGAGCCACAUCGCUCAGATT; antisense UCUGAGCGAUGUGGCUCGGTTTTT; sense: sugars from the 5' end r19 d2, backbone not given here; antisense: sugars from the 5' end r19 d5, backbone not given here) | 20 | 79.5 | −1.7 | – | –
rA5: GAPDH siRNA, sense SEQ ID NO: 9 with ribo A5 3′-overhang, antisense SEQ ID NO: 10 with U2 (sense CCGAGCCACAUCGCUCAGAAAAAA; antisense UCUGAGCGAUGUGGCUCGGUU; RNA, backbone not given here) | 60 | 79.0 | −2.2 | – | –
dG5: GAPDH siRNA, sense SEQ ID NO: 7 with dG5 3′-overhang, antisense SEQ ID NO: 2 with dT2 (sense CCGAGCCACAUCGCUCAGAGGGGG; antisense UCUGAGCGAUGUGGCUCGGTT; sense: sugars from the 5' end r19 d5, backbone not given here; antisense: sugars from the 5' end r19 d2, backbone not given here) | – | 79.2 | −2.0 | ~2 | –
(dT5)2: Symmetrical GAPDH siRNA, sense SEQ ID NO: 3 and antisense SEQ ID NO: 5, dT5 overhang at both 3′-ends (sense CCGAGCCACAUCGCUCAGATTTTT; antisense UCUGAGCGAUGUGGCUCGGTTTTT; sugars from the 5' end r19 d5, backbone not given here) | 65 | 80.1 | −1.1 | ~1 | enhancement in activity compared to canonical siRNA ([1]; MATra-si transfection): 10%; GAPDH gene knockdown ([1]; MATra-si transfection): 70%
dC5: GAPDH siRNA, sense SEQ ID NO: 8 with dC5 3′-overhang, antisense SEQ ID NO: 2 with dT2 (sense CCGAGCCACAUCGCUCAGACCCCC; antisense UCUGAGCGAUGUGGCUCGGTT; sense: sugars from the 5' end r19 d5, backbone not given here; antisense: sugars from the 5' end r19 d2, backbone not given here) | – | 80.9 | −0.3 | – | –
dA5: GAPDH siRNA, sense SEQ ID NO: 6 with dA5 3′-overhang, antisense SEQ ID NO: 2 with dT2 (sense CCGAGCCACAUCGCUCAGAAAAAA; antisense UCUGAGCGAUGUGGCUCGGTT; sense: sugars from the 5' end r19 d5, backbone not given here; antisense: sugars from the 5' end r19 d2, backbone not given here) | 80 | 79.6 | −1.6 | ~1.5 | RNAi activity among different 5-nt candidates ([1]; FIG. 2B): highest RNAi activity
miR-34a: Natural miR-34a duplex, sense SEQ ID NO: 20, antisense SEQ ID NO: 21 (sense CAAUCAGCAAGUAUACUGCCCU; antisense UGGCAGUGUCUUAGCUGGUUGU; unmodified RNA) [reference compound] | – | – | – | – | Ctnnb1 expression ([3]; transfected with MaTra (FIG. 12)): induced over expression of Ctnnb1; Ctnnb1 expression [3, 4]: did not show any effect on the expression levels of Ctnnb1
